Like-named read-outs stand apart in the source and are kept apart here.
Columns and labels:
[1] = test system: KYSE-520 cell (human esophageal squamous cell carcinoma cell); test: Inhibition of the proliferation activity of KYSE-520 cell (CellTiter-Glo); assay type: cell-based; conditions: 120 h, KYSE-520 cell proliferation, 5 days
Procedure: Test Example 2: Experiment on the Inhibition of the Proliferation Activity of KYSE-520 Cell (Human Esophageal Squamous Cell Carcinoma Cell)
cell: KYSE-520 (JCRB Cell Bank);
(§1) kit: CellTiter-Glo® Luminescent Cell Viability Assay Kit (Promega).
(§2) inoculation amount of cell: 1500 cells/well;
incubation conditions for compound: 37° C., 5% CO2;
(§3) incubation duration: 5 days;
(§4) detecting temperature: room temperature;
(§5) chemiluminescence detection using the BMG PHERAstar FS reader.
(§6) Cells were cultured in a medium containing 10% fetal bovine serum under the culture conditions of 37° C. and 5% CO2. An appropriate amount of cells were plated into a 96-well plate and cultured overnight in an incubator to allow the cells to adhere to the wall. The following day, the medium was removed and a complete medium containing a pre-diluted compound was added and incubated at 37° C. for 5 days. On the fifth day, the detection reagent CellTiter-Glo® was added into each well. Chemiluminescence was adopted to detect the relative luminescence units (RLUs) of the wells.
(§7) The result of a well containing cell-free medium, treated with CellTiter-Glo®, was obtained as the blank value. Cell viability (%)=(sample RLU−blank RLU)/(vehicle RLU−blank RLU)×100%, and maximum inhibition rate (%)=100%−cell viabilitymax. conc. (%). The half maximal inhibitory concentration (IC50) of the compound was calculated by fitting the curve according to the four-parameter logistic model.

[2] = biological target: T1, CYP1A2 (Homo sapiens, UniProt P05177); test: Biochemical assay for CYP enzyme inhibition, P450-Glo CYP1A2 Screening System; assay type: in vitro ADME
T1 construct: purchased Promega
T1 sequence (P05177 1-516): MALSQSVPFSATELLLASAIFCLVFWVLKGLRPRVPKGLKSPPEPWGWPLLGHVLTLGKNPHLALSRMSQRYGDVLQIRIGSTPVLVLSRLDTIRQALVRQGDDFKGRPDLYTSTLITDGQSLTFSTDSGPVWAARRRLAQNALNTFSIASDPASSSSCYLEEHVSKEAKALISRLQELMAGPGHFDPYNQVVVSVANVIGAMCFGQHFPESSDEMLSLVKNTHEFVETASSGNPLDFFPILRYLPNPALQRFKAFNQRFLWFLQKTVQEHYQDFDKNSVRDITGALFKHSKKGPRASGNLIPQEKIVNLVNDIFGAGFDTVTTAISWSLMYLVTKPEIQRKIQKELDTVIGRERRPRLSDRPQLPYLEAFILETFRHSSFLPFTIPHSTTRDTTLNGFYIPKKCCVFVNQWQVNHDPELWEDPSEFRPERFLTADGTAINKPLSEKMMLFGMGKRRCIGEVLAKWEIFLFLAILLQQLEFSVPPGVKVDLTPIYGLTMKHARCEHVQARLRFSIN
Procedure: (§8) Test Example 5: Biochemical Assay for CYP Enzyme (Cytochrome P450) Inhibition
P450-Glo™ CYP1A2 Screening System, (Promega);
(§9) BMG PHERAstar FS Luminescent.
(§10) The experiments were carried out separately according to the instructions of the kits. The steps were as follows:
3.1. Inhibition Against CYP1A2:
(§11) Test group: The test compounds at different concentrations were added into a microplate, and Luciferin-ME (100 μM), K3PO4 (100 mM), and CYP1A2 (0.01 μmol/μL) were added into each well, and pre-incubated at room temperature for 10 min. Thereafter, an NADPH regeneration system was added. The mixture was reacted at room temperature for 30 min. Finally, an equal volume of detection buffer was added and incubated at room temperature for 20 min, followed by chemiluminescence detection.
(§12) Negative control group: The experimental method for the negative control group was the same as that for the test group, except that the test compound was not added.
Blank control group: The experimental method for the blank control group was the same as that for the test group, except that the test compound was not added and that CYP1A2 was replaced with CYP1A2 Membrance (0.01 μmol/μL).
(§13) Percentage inhibition=(1−(the chemiluminescent signal value of the test compound group at a certain test concentration−the chemiluminescent signal value of the blank control group)/(the chemiluminescent signal value of the negative control group−the chemiluminescent signal value of the blank control group))×100%.
(§14) When the percentage inhibition was between 30% and 80%, a single value or a value range of the half maximal inhibitory concentration (IC50) of the compound against the CYP enzyme was estimated based on the following equation: IC50=X×(1−percentage inhibition)/percentage inhibition, wherein X was the test concentration of the compound.

[3] = test system: NCI-H358 cell (human non-small cell lung cancer cell); test: Inhibition of the proliferation activity of NCI-H358 cell (CellTiter-Glo); assay type: cell-based; conditions: 120 h, 5 days
Procedure: Test Example 4: Experiment on the Inhibition of the Proliferation Activity of NCI-H358 Cell (Human Non-Small Cell Lung Cancer Cell)
cell: NCI-H358 (Nanjing CoBioer);
as §1, §2
incubation conditions for compounds: 37° C., 5% CO2;
as §3, §4, §5, §6, §7

[4] = biological target: T2, hERG (Homo sapiens, UniProt Q12809); test: Biochemical assay for hERG inhibition (Predictor hERG Fluorescence Polarization Assay Kit); assay type: binding
T2 construct: purchased ThermoFisher
Procedure: Test Example 3: Biochemical Assay for hERG Inhibition
kit: Predictor™ hERG Fluorescence Polarization Assay Kit (ThermoFisher) containing:
Compound E4031 as a positive control;
tracer concentration: 1 nM;
incubation duration: 2 hours;
parameters for microplate reader: BMG PHERAstar FS fluorescence microplate reader.
Test group: The test compounds at different concentrations were added into a microplate containing hERG cell membrane, and the tracer with a high affinity for hERG was then added into each well. The microplate was incubated at 25° C. for 2 hours before detection of the change in fluorescence polarization value (mP) (excitation wavelength: 540 nm; emission wavelength: 590 nm) using a multi-mode microplate reader.
Positive control group: The experimental method for the positive control group was the same as that for the test group, except that the test compound was replaced with 30 μM Compound E4031.
Blank control group: The experimental method for the blank control group was the same as that for the test group, except that the test compound was replaced with the hERG buffer and that the hERG cell membrane was not added.
Based on the data ratios, the percentage inhibition (%) of the compounds of the present disclosure against hERG at different concentrations was calculated and the range of the half maximal inhibitory concentration (IC50) of the compounds was determined. Percentage inhibition (%)=(1−(mP of the test compound−mP of the positive control group)/(mP of the blank control group−mP of the positive control group))×100%.

[5] = biological target: T3, CYP3A4 (Homo sapiens, UniProt P08684); test: Biochemical assay for CYP enzyme inhibition, P450-Glo CYP3A4 Screening System; assay type: in vitro ADME
T3 construct: purchased Promega
Procedure: as §8
P450-Glo™ CYP3A4 Screening System, (Promega).
as §9, §10
3.3. Inhibition Against CYP3A4:
as §11, with “Luciferin-IPA ([…]),” for “Luciferin-ME (100 μM),”, “CYP3A4 (2 nM)” for “CYP1A2 (0.01 μmol/μL)”
as §12
Blank control group: The experimental method for the blank control group was the same as that for the test group, except that the test compound was not added and that CYP3A4 was replaced with CYP3A4 Membrance (2 nM).
as §13, §14

[6] = estimated from percentage inhibition, read-out: IC50 (μM) CYP3A4
[7] = estimated from percentage inhibition, read-out: IC50 (μM) CYP1A2

T3 sequence (P08684 whole entry): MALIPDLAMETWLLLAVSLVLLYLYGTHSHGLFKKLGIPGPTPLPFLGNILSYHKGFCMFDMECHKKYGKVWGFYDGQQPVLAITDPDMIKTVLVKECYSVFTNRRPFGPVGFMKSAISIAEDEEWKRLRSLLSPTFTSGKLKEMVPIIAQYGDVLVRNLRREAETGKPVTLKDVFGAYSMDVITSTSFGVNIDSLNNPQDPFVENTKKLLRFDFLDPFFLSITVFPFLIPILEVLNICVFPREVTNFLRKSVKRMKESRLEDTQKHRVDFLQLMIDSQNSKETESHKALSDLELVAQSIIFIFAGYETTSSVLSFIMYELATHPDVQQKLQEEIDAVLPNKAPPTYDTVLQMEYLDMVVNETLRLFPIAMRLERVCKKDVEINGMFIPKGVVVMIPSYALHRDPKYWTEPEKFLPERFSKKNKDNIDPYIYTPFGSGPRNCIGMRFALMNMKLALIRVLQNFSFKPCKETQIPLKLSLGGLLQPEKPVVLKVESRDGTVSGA
T2 sequence (Q12809 whole entry): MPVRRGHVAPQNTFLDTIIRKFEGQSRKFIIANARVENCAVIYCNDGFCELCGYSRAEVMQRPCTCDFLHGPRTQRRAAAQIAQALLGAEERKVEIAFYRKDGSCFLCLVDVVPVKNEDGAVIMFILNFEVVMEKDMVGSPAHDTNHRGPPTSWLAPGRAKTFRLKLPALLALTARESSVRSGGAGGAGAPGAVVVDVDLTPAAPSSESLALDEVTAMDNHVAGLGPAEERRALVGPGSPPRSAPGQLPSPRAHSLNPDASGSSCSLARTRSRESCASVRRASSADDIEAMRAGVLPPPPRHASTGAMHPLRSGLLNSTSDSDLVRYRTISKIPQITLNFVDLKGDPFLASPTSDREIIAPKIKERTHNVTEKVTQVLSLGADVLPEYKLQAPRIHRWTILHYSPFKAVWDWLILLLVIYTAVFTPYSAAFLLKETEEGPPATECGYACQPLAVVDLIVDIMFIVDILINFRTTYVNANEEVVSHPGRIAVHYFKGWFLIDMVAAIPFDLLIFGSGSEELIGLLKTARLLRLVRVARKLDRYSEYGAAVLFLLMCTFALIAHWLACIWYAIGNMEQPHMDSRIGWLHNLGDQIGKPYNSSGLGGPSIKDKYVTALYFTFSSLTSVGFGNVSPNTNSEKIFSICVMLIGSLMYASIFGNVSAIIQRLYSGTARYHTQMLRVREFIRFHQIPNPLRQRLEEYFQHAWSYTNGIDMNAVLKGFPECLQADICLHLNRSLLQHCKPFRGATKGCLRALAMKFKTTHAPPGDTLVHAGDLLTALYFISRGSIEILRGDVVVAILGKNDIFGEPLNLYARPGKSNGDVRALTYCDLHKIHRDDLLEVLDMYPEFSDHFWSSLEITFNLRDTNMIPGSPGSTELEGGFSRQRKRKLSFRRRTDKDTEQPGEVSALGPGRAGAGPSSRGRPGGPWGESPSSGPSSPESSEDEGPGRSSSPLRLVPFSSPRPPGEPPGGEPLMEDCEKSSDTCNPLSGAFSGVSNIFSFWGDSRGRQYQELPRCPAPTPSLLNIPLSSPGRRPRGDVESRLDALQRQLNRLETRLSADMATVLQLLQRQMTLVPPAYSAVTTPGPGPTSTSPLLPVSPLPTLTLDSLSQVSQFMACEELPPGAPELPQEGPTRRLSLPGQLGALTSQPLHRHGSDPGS

SMILES | IC50 [1] | IC50 [2] | IC50 [3] | IC50 [4] | IC50 [5, 6] | IC50 [5] | IC50 [2, 7]
C[C@@H]1OCC2(CCN(c3ncc(Sc4ccnc(N5CCCC5CO)c4Cl)nc3CO)CC2)[C@@H]1N (stereo partly shown) [Example 2] | 100 nM | > 10 µM | 40 nM | > 10000 nM | > 10 µM |  | 
CC(C)(O)C1CN(c2nccc(Sc3cnc(N4CCC5(CC4)COC[C@H]5N)c(CO)n3)c2Cl)C1 [Example 13, (S)-2-(1-(4-(5-(4-amino-2-oxa-8-azaspiro[4.5]decan-8-yl)-6-(hydroxymethyl)pyrazin-2-ylthio)-3-chloropyridin-2-yl)azetidin-3-yl)propan-2-ol] |  | > 10 µM | 260 nM | > 10000 nM | > 10 µM |  | 
C[C@@H]1OCC2(CCN(c3ncc(Sc4ccnc(N5CC(CC#N)C5)c4Cl)nc3CO)CC2)[C@@H]1N [Example 5, 2-(1-(4-(5-((3S,4S)-4-amino-3-methyl-2-oxa-8-azaspiro[4.5]decan-8-yl)-6-(hydroxymethyl)pyrazin-2-ylthio)-3-chloropyridin-2-yl)azetidin-3-yl)acetonitrile] | 60 nM | > 10 µM | 34 nM |  |  | > 10 µM | 
CC(C)(O)C1CN(c2nccc(Sc3cnc(N4CCC5(CC4)Cc4ccccc4[C@H]5N)c(CO)n3)c2Cl)C1 [Example 23, (S)-2-(1-(4-(5-(1-amino-1,3-dihydrospiro[indene-2,4′-piperidin]-1′-yl)-6-(hydroxymethyl)pyrazin-2-ylthio)-3-chloropyridin-2-yl)azetidin-3-yl)propan-2-ol] | 140 nM |  | 5 nM |  | > 10 µM |  | > 10 µM
COCC1CN(c2nccc(Sc3cnc(N4CCC5(CC4)CO[C@@H](C)[C@H]5N)c(CO)n3)c2Cl)C1 [Example 21, (3-((3S,4S)-4-amino-3-methyl-2-oxa-8-azaspiro[4.5]decan-8-yl)-6-(3-chloro-2-(3-(methoxymethyl)azetidin-1-yl)pyridin-4-ylthio)pyrazin-2-yl)methanol] | 110 nM | > 10 µM | 30 nM |  |  | > 10 µM | 
CC(C)(O)C1CN(c2nccc(Sc3cnc(N4CCC5(CC4)Cc4ncccc4[C@H]5N)c(CO)n3)c2Cl)C1 [Example 43, (S)-2-(1-(4-(5-(5-amino-5,7-dihydrospiro[cyclopenta[b]pyridine-6,4′-piperidin]-1′-yl)-6-(hydroxymethyl)pyrazin-2-ylthio)-3-chloropyridin-2-yl)azetidin-3-yl)propan-2-ol] | 40 nM |  | 8 nM |  | > 10 µM |  | > 10 µM
C[C@@H]1OCC2(CCN(c3cnc(Sc4ccnc(N5CC(C(C)(C)O)C5)c4Cl)cn3)CC2)[C@@H]1N [Example 28, 2-(1-(4-(5-((3S,4S)-4-amino-3-methyl-2-oxa-8-azaspiro[4.5]decan-8-yl)pyrazin-2-ylthio)-3-chloropyridin-2-yl)azetidin-3-yl)propan-2-ol] |  | > 10 µM | 130 nM | > 10000 nM |  | > 10 µM | 
Cc1nc(N2CCC3(CC2)CO[C@@H](C)[C@H]3N)c(CO)nc1Sc1ccnc(N2CCCC2CO)c1Cl (stereo partly shown) [Example 1] | 360 nM | > 10 µM |  |  |  | > 10 µM | 
C[C@@H]1OCC2(CCN(c3ncc(Sc4ccnc(N5CC(C(C)(C)O)C5)c4F)nc3CO)CC2)[C@@H]1N [Example 40, 2-(1-(4-(5-((3S,4S)-4-amino-3-methyl-2-oxa-8-azaspiro[4.5]decan-8-yl)-6-(hydroxymethyl)pyrazin-2-ylthio)-3-fluoropyridin-2-yl)azetidin-3-yl)propan-2-ol] |  | > 10 µM | 30 nM | > 10000 nM |  | > 10 µM | 
CC(C)(O)C1CN(c2nccc(Sc3cnc(N4CCC5(CC4)Oc4ccccc4[C@H]5N)c(CO)n3)c2Cl)C1 [Example 22, (R)-2-(1-(4-(5-(3-amino-3H-spiro[benzofuran-2,4′-piperidin]-1′-yl)-6-(hydroxymethyl)pyrazin-2-ylthio)-3-chloropyridin-2-yl)azetidin-3-yl)propan-2-ol] | 50 nM |  | 31 nM |  | > 10 µM |  | > 10 µM
C[C@@H]1OCC2(CCN(c3ncc(Sc4ccnc(N5CC(CO)C5)c4Cl)nc3CO)CC2)[C@@H]1N [Example 6, (3-((3S,4S)-4-amino-3-methyl-2-oxa-8-azaspiro[4.5]decan-8-yl)-6-(3-chloro-2-(3-(hydroxymethyl)azetidin-1-yl)pyridin-4-ylthio)pyrazin-2-yl)methanol] | 40 nM | > 10 µM | 74 nM |  |  | > 10 µM | 
Cc1nc(N2CCC3(CC2)CO[C@@H](C)[C@H]3N)c(CO)nc1Sc1ccnc(N2CC(CS(C)(=O)=O)C2)c1Cl [Example 25, (3-((3S,4S)-4-amino-3-methyl-2-oxa-8-azaspiro[4.5]decan-8-yl)-6-(3-chloro-2-(3-(methylsulfonylmethyl)azetidin-1-yl)pyridin-4-ylthio)-5-methylpyrazin-2-yl)methanol] |  | > 10 µM | 150 nM | > 10000 nM |  | > 10 µM | 
CC(O)C1CN(c2nccc(Sc3cnc(N4CCC5(CC4)CO[C@@H](C)[C@H]5N)c(CO)n3)c2Cl)C1 (stereo partly drawn) [Example 17, 1-(1-(4-(5-((3S,4S)-4-amino-3-methyl-2-oxa-8-azaspiro[4.5]decan-8-yl)-6-(hydroxymethyl)pyrazin-2-ylthio)-3-chloropyridin-2-yl)azetidin-3-yl)ethan-1-ol] | 30 nM | > 10 µM | 39 nM |  |  | > 10 µM | 

Source: patent US20230212180A1, “SUBSTITUTED PYRAZINE COMPOUND, PHARMACEUTICAL COMPOSITION COMPRISING SAME, AND USE THEREOF” (Sichuan Kelun-Biotech Biopharmaceutical Co., Ltd., priority 2020, published 2023)
